Source: PubChem BioAssay (NCI)
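Abbreviation: GI50, concentration required for 50% inhibition of growth. The concentration for full growth arrest is given as TGI.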

What was measured:
Assay in all cases: inhibition of tumour cell growth, NCI panel, 384-well format
SNB-75 CNS = system: SNB-75 CNS
SK-MEL-28 melanoma = system: SK-MEL-28 melanoma
T-47D breast = system: T-47D breast
ACHN renal = system: ACHN renal
TK-10 renal = system: TK-10 renal
CAKI-1 renal = system: CAKI-1 renal
NCI-H522 lung = system: NCI-H522 lung
MDA-MB-435 melanoma = system: MDA-MB-435 melanoma
MOLT-4 leukemia = system: MOLT-4 leukemia
UACC-62 melanoma = system: UACC-62 melanoma
HCT-15 colon = system: HCT-15 colon
NCI-H23 lung = system: NCI-H23 lung
NCI/ADR-RES ovarian = system: NCI/ADR-RES ovarian

In the case of `Cc1ccc2c(Nc3cccc(Cl)c3F)ncc(NC(=O)c3csc4c(N)ncnc34)c2c1`, the GI50 (SNB-75 CNS) is reported as 33.6 µM, the TGI (SNB-75 CNS) is reported as > 100 µM and the GI50 (SK-MEL-28 melanoma) is reported as 0.0179 µM. The TGI (SK-MEL-28 melanoma) was 0.0923 µM, the GI50 (T-47D breast) was 19.5 µM and the TGI (T-47D breast) was > 100 µM. The GI50 (ACHN renal) was 12.7 µM, the TGI (ACHN renal) was > 100 µM and the GI50 (TK-10 renal) was 8.61 µM. For the same molecule, the TGI (TK-10 renal) was 75.8 µM, the GI50 (CAKI-1 renal) was 0.577 µM and the TGI (CAKI-1 renal) was > 100 µM. It also gave a GI50 (NCI-H522 lung) of 13.1 µM, a TGI (NCI-H522 lung) of 59 µM and a GI50 (MDA-MB-435 melanoma) of 0.0481 µM. For the same molecule, the TGI (MDA-MB-435 melanoma) was 55 µM, the GI50 (MOLT-4 leukemia) was 21.8 µM and the TGI (MOLT-4 leukemia) was > 100 µM. For the same molecule, the GI50 (UACC-62 melanoma) was 0.0251 µM, the TGI (UACC-62 melanoma) was 0.209 µM and the GI50 (HCT-15 colon) was 26.3 µM. For the same molecule, the TGI (HCT-15 colon) was > 100 µM, the GI50 (NCI-H23 lung) was 0.0761 µM and the TGI (NCI-H23 lung) was 4.46 µM. For the same molecule, the GI50 (NCI/ADR-RES ovarian) was 19.7 µM and the TGI (NCI/ADR-RES ovarian) was > 100 µM.
